{
  "source": "patent US9364493B2",
  "about": "“Methods and compositions for enhancing the uptake of therapeutic agents by target cells” (Tsinghua University, priority 2011, dated 2016)",
  "key": {"[1]": {"tested_on": "Human microvascular endothelial cells (HMECs)", "test": "Internalization of ES and its derivatives in blood vessel endothelial cells (Western Blotting)", "format": "cell-based", "conditions": "for effect on ES internalization in endothelial cells: tested in place of NT: AMB 25-50 μg/mL, methyl-β-cyclodextrin 1-2 mM, filipin 2.5-5 μg/mL; for increase of ES internalization: then ES 5 μg/mL 30 min, vs cells without NT", "source_text": "Human microvascular endothelial cells (HMECs) were from ATCC (accession number CRL 10636). Mouse lymphatic endothelial cells (mLEC) were isolated via digesting peritoneal lymphoma induced by incomplete Freund's adjuvant injection (Zhuo W. et al, Journal of Pathology; 222:249-260). […] (SEQ ID NO:5) at N-terminal, the sequence of which is SEQ ID NO.3 or SEQ ID NO.4 because the first amino acid residue M will be randomly deleted when expressed in E. Coli. ES was obtained from Protgen Ltd., the amino acid sequence of which is SEQ ID NO.1 or SEQ ID NO.2 because the first amino acid residue M will be randomly deleted when expressed in E. Coli. Monomethoxy PEG propionaldehyde (mPEG-ALD) with an average molecular weight of 20 kDa (Jenkem Technology CO., Ltd.,) was used as the PEG reagent for specifically modifying the α-amino group at N-terminal of a protein. PEG-ES and PEG-Endu were prepared by Protgen Ltd. according to the instructions provided in the PEG reagent kit. Monoclonal antibody against ES was purchased from Oncogene Science, Inc. NT and other reagents were purchased from Sigma-Aldrich Co.\nThe endothelial cells were cultured to reach 90% confluence, and then pre-treated with DMEM medium (Hyclone) containing NT as follows. NT stock solution was added to the medium to a final concentration of 0 μg/mL, 25 μg/mL, or 50 μg/mL, and the culture was then incubated in a 5% CO2 atmosphere at 37° C. for 20 min for NT pre-treatment. After pre-treatment, ES stock solution (5 mg/ml) was added to the medium to a final concentration of 5 μg/mL. The culture was then incubated in a 5% CO2 atmosphere at 37° C. for 30 min to allow the internalization of ES by the endothelial cells. After removing the medium, the endothelial cells were washed with ice-cold PBS for 3 times and then collected. The ES internalization in whole cell lysate, cytosolic fraction, and nuclear fraction was examined by Western Blotting, compared with the cells without NT treatment.\nSome other agents which share the same action mechanism as NT were also tested in place of in this example, such as AMB (25-50 μg/mL), methyl-β-cyclodextrin (1-2 mM), and filipin (2.5-5 μg/mL).\nOther therapeutic agents which share the same action mechanism as ES can also be used in this example, such as PEG-modified ES. For this purpose, ES was modified with monomethoxy PEG propionaldehyde (mPEG-ALD) of 20 kDa which specifically modifies the N-terminal of a protein, and the product (PEG-ES) was an ES protein conjugated with one PEG molecule at the N-terminal α-amino group of ES."}, "p38 MAPK pathway": {"tested_on": "p38 MAPK pathway", "test": "p38 MAPK signaling pathway activation in endothelial cells (Western Blotting)", "format": "cell-based", "conditions": "NT 50 μg/mL 20 min and/or ES 5 μg/mL 30 min; vs negative control", "procedure": "(§1) In this example, endothelial cells were separated into four groups: (1) negative control group, neither NT treatment, nor ES treatment; (2) NT group, treatment with NT at 50 μg/mL for 20 min, without ES treatment; (3) ES group, treatment with ES at 5 μg/mL for 30 min, without NT treatment; (4) NT plus ES group, treatment with NT at 50 μg/mL for 20 min, followed by treatment with ES at 5 μg/mL for 30 min. After treatment with the same method as described in Example 1, cells were collected and the ERK and p38 MAPK pathways were examined."}, "[2]": {"tested_on": "tumor blood vessel endothelial cells (CD31) in A549 tumors", "test": "Tumor blood vessel formation assay (CD31 immunofluorescence), A549 mice", "format": "in vivo, nude mice", "conditions": "NT 6 mg/kg plus ES 12 mg/kg vs ES alone, CD31 blood vessel area", "source_text": "Tumor blood vessel formation assay: Tumors from A549 mice were resected, fixed and sectioned. Samples were detected with primary antibody against CD31 (the marker of tumor blood vessel endothelial cells) and FITC-labeled secondary antibody (Santa Cruz), and then observed with Nikon A1 laser scanning confocal microscope (LSCM). The sectional areas of blood vessels in randomly selected fields (400×) were quantified and averaged with the software of the LSCM system."}, "[3]": {"tested_on": "EGFR-expressing A549 cells", "test": "EGFR monoclonal antibody (Cetuximab) internalization in tumor cells (Western Blotting)", "format": "cell-based, human", "conditions": "NT 25 or 50 μg/mL pre-treatment 20 min, then Cetuximab 5 μg/mL 30 min; positively correlated to NT concentrations", "procedure": "EGFR-expressing A549 cells at exponential growth were cultured to reach 90% confluence and then pre-treated with DMEM medium containing NT as follows. NT stock solution was added to the medium to a final concentration of […], 25 μg/mL, or 50 μg/mL, and the culture was then incubated in a 5% CO2 atmosphere at 37° C. for 20 min for NT pre-treatment. After pre-treatment, EGFR monoclonal antibody (Cetuximab, Merck) stock solution (5 mg/ml) was added to the medium to a final concentration of 5 μg/mL. The culture was then incubated in a 5% CO2 atmosphere at 37° C. for 30 min to allow the internalization of EGFR monoclonal antibody by the […]. After treatment, the medium was removed, and the endothelial cells were washed with ice-cold PBS for 3 times and then collected. The EGFR monoclonal antibody internalization in cells was examined by Western Blotting, compared with EGFR monoclonal antibody internalization in cells without NT treatment."}, "H22 liver cancer": {"tested_on": "H22 liver cancer", "test": "H22 liver cancer mouse model", "format": "in vivo"}, "[4]": {"tested_on": "Mouse lymphatic endothelial cells (mLEC)", "test": "ES internalization in lymphatic endothelial cells (Western Blotting)", "format": "cell-based", "conditions": "then ES 2 μg/mL 15 min", "source_text": "Human microvascular endothelial cells (HMECs) were from ATCC (accession number CRL 10636). Mouse lymphatic endothelial cells (mLEC) were isolated via digesting peritoneal lymphoma induced by incomplete Freund's adjuvant injection (Zhuo W. et al, Journal of Pathology; 222:249-260). Endu was obtained from Simcere-Medgenn Bio-pharmaceutical Co., Ltd. Endu is a recombinant ES containing an additional amino acid sequence (M)GGSHHHHH (SEQ ID NO:5) at N-terminal, the sequence of which is SEQ ID NO.3 or SEQ ID NO.4 because the first amino acid residue M will be randomly deleted when expressed in E. Coli. ES was obtained from Protgen Ltd., the amino acid sequence of which is SEQ ID NO.1 or SEQ ID NO.2 because the first amino acid residue M will be randomly deleted when expressed in E. Coli. Monomethoxy PEG propionaldehyde (mPEG-ALD) with an average molecular weight of 20 kDa (Jenkem Technology CO., Ltd.,) was used as the PEG reagent for specifically modifying the α-amino group at N-terminal of a protein. PEG-ES and PEG-Endu were prepared by Protgen Ltd. according to the instructions provided in the PEG reagent kit. Monoclonal antibody against ES was purchased from Oncogene Science, Inc. NT and other reagents were purchased from Sigma-Aldrich Co.\nThe mLECs were pre-treated with DMEM (Hyclone) containing 0, 75, 150, or 300 μg/mL NT in a 5% CO2 atmosphere at 37° C. for 20 min. The cells were then incubated with culture media containing ES (final concentration of 2 μg/mL) in a 5% CO2 atmosphere at 37° C. for 15 min. After treatment, the cells were washed with PBS for 3 times, and then collected. The ES internalization in cells treated with NT at various concentrations was examined by Western Blotting."}, "[5]": {"tested_on": "Human lung adenocarcinoma A549 tumor", "test": "A549 lung adenocarcinoma tumor growth in nude mice", "format": "in vivo", "conditions": "NT 6 mg/kg i.p. daily alone, fourteen daily injections; vs control group", "procedure": "Human lung adenocarcinoma A549 tumor cells (ATCC accession number CCL-185) at exponential growth were subcutaneously inoculated into 6-8 week-old nude mice (Vital River Laboratory Animal Technology Co., Ltd). When the tumor volume reached 100 mm^3, the tumor bearing nude mice were separated into four groups: (1) negative control, treatment with saline; (2) NT group, treatment with NT (6 mg/kg, intraperitoneal injection, daily), without ES treatment; (3) ES group, treatment with ES (12 mg/kg, intraperitoneal injection, daily), without NT treatment; (4) NT plus ES group, combined treatment with NT (6 mg/kg, intraperitoneal injection, daily) and ES (12 mg/kg, intraperitoneal injection, daily). After fourteen daily injections, mice were sacrificed, and the weight and volume of the tumors were measured."}, "ERK pathway": {"tested_on": "ERK pathway", "test": "ERK signaling pathway activation in endothelial cells (Western Blotting)", "format": "cell-based", "conditions": "NT 50 μg/mL 20 min and/or ES 5 μg/mL 30 min; vs negative control", "procedure": "as §1"}, "HMEC": {"tested_on": "HMEC", "test": "Transwell cell migration assay", "format": "cell-based, human", "conditions": "NT 50 μg/mL alone; 10 ng/mL VEGF, 6 hours; vs negative control", "procedure": "Cell migration assay: HMEC (2×10^4 cells per well) were seeded into DMEM (Hyclone) containing 0.5% FBS (Hyclone) and 10 ng/mL VEGF (PeproTech) on the upper layer of Transwell chambers (8 μm pores, Costar). ES (40 μg/mL) or NT (50 μg/mL) was added into both the upper and lower layers, and then the chambers were incubated in a 5% CO2 atmosphere at 37° C. for 6 hours to allow cell migration. […] The numbers of the cells migrated into the lower layer were counted and mean values were calculated. Experiments were performed in triplicate and each experiment was repeated twice.\nIn this example, endothelial cells were separated into four groups: (1) negative control group, neither NT treatment, nor ES treatment; (2) NT group, treatment with NT at 50 μg/mL, without ES treatment; (3) ES group, treatment with ES at 40 μg/mL, without NT treatment; (4) NT plus ES group, combined treatment with NT at 50 μg/mL and ES at 40 μg/mL. […] ES treatment (ES group) inhibited the transwell migration of endothelial cells by 61%."}, "[6]": {"conditions": "NT treatment, same dosage and treatment time, positively correlated to NT concentration"}},
  "data": [
    {"compound": "C[C@@H]1[C@H](O)[C@@H](C)/C=C/C=C/C=C/C=C/C=C/C=C/C=C/[C@H](O[C@@H]2O[C@H](C)[C@@H](O)[C@H](N)[C@@H]2O)C[C@@H]2O[C@](O)(C[C@@H](O)C[C@@H](O)[C@H](O)CC[C@@H](O)C[C@@H](O)CC(=O)O[C@H]1C)C[C@H](O)[C@H]2C(=O)O", "note": "[AMB, Amphotericin B]", "values": [
      {"measurement": "effect on ES internalization in endothelial cells", "setting": "[1]", "result": "can increase ES internalization"}
    ]},
    {"compound": "C[C@@H]1[C@H](O)[C@@H](C)/C=C/C=C/CC/C=C/C=C/C=C/C=C/C(O[C@H]2O[C@H](C)[C@@H](O)[C@H](N)[C@@H]2O)CC2O[C@](O)(CC(O)C(O)CCC(O)CC(O)CC(O)CC(=O)O[C@H]1C)CC(O)C2C(=O)O", "note": "(stereo partly shown) [NT, Nystatin]", "values": [
      {"measurement": "effect on activation of p38 MAPK pathway", "setting": "p38 MAPK pathway", "result": "did not influence"},
      {"measurement": "effect on inhibitory efficacy of ES on tumor blood vessel formation", "setting": "[2]", "result": "potentiated"},
      {"measurement": "effect on Cetuximab internalization in the cells", "setting": "[3]", "result": "significantly increased"},
      {"measurement": "increase of ES internalization", "setting": "[1]; NT 25 μg/mL pre-treatment 20 min", "result": "about 2 folds"},
      {"measurement": "increase of ES internalization", "setting": "[1]; NT 50 μg/mL pre-treatment 20 min", "result": "~15", "unit": "folds"},
      {"measurement": "effect on PEG-ES internalization in blood vessel endothelial cells", "setting": "[1]; NT treatment, same PEG-ES dosage and treatment time, positively correlated to NT concentration", "result": "increased"},
      {"measurement": "effect on Endu internalization in endothelial cells", "setting": "[1]; [6]", "result": "increased"},
      {"measurement": "effect on PEG-Endu internalization in endothelial cells", "setting": "[1]; [6]", "result": "increased"},
      {"measurement": "effect on antiangiogenesis activity of ES", "setting": "H22 liver cancer; tumor blood vessel area", "result": "enhancement effect"},
      {"measurement": "effect on antitumor activity of ES", "setting": "H22 liver cancer; tumor weight", "result": "enhancement effect"},
      {"measurement": "increase of ES internalization in mLECs", "setting": "[4]; NT 75 μg/mL pre-treatment 20 min", "result": 16, "unit": "fold"},
      {"measurement": "increase of ES internalization in mLECs", "setting": "[4]; NT 150 μg/mL pre-treatment 20 min", "result": 32, "unit": "fold"},
      {"measurement": "increase of ES internalization in mLECs", "setting": "[4]; NT 300 μg/mL pre-treatment 20 min", "result": 78, "unit": "fold"},
      {"measurement": "effect on tumor growth (in words)", "setting": "[5]", "result": "did not influence tumor growth"},
      {"measurement": "effect on activation of ERK pathway", "setting": "ERK pathway", "result": "did not influence"},
      {"measurement": "effect on transwell migration of endothelial cells (in words)", "setting": "HMEC", "result": "did not substantially influence"}
    ]},
    {"compound": "CCCCC[C@@H](O)[C@H]1C(=O)O[C@H](C)[C@@H](O)/C=C/C=C/C=C/C=C/C=C(\\C)[C@@H](O)C[C@H](O)C[C@H](O)C[C@H](O)C[C@H](O)C[C@H](O)C[C@@H]1O", "note": "[filipin]", "values": [
      {"measurement": "effect on ES internalization in endothelial cells", "setting": "[1]", "result": "can increase ES internalization"}
    ]},
    {"compound": "methyl-β-cyclodextrin", "values": [
      {"measurement": "effect on ES internalization in endothelial cells", "setting": "[1]", "result": "can increase ES internalization"}
    ]}
  ]
}
